Assay results reported in patent US11000033B2, “Ketone or oxime compound, and herbicide” (NISSAN CHEMICAL CORPORATION, priority 2014, dated 2021).

Tests used:
Type in all cases: in vivo
[1] = test system: rapeseed; assay: Test Example 5: effect on crop by foliage application, plastic box (symbol g); conditions: 320 g/ha, 3 weeks after application
Procedure, shortened: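 Soil: sterilized diluvial. Container: plastic box, 21 × 13 cm, 7 cm deep. Sowing: spot-like, ~1.5 cm cover. Growth: greenhouse, 25° C. to 30° C.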

[2] = test system: Scirpus juncoides; assay: Test Example 2: herbicidal activity, application during weed generation in submerged conditions (symbol B); conditions: Table 23; application herbicide amount 320 g/ha; grade 0-5 by criteria of Test Example 1
Procedure, shortened: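 Visual herbicidal ratings, taken three weeks after dosing, reflect post-emergence water-surface application to seedlings at one to two leaves. Conditions: co-sown weeds in alluvial soil flooded to 4 cm, greenhouse held at 25° C. to 30° C.; compound given as water-diluted emulsion at a fixed herbicide amount.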

[3] = test system: beet; assay: Test Example 4: effect on crop by soil treatment (symbol f)
Procedure, shortened: (§1)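 Crop seed is sown in spots together with several weed species in a box of sterilized diluvial soil. It is covered by about 1.5 cm of soil and kept in a greenhouse held between 25° C. and 30° C.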

[4] = test system: Leptochloa chinensis; assay: Test Example 3: herbicidal effect by foliage application, Wagner pot (symbol D); conditions: application herbicide amount 320 g/ha
Procedure, shortened: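 Herbicidal activity was rated three weeks after a foliar spray of diluted emulsion concentrate, applied at a predetermined dose to plants grown for 14 days from seed in waterlogged alluvial soil within a 25–30 °C greenhouse.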

[5] = test system: Scirpus juncoides; assay: Test Example 1: herbicidal activity, application before weed generation in submerged conditions (symbol B); conditions: application herbicide amount 320 g/ha
Procedure, shortened: (§2)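 Mixed weed seeds sown in alluvial soil under 4 cm of water, with rice seedlings at the 2.5-leaf stage added. Same-day treatment: emulsion diluted to a set herbicide amount onto the water. Three weeks at 25–30 °C, then graded on a six-step scale.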

[6] = test system: Echinochloa crus-galli var. crus-galli; assay: Test Example 5: herbicidal effect by foliage application, plastic box (symbol H); conditions: 320 g/ha, 3 weeks after application
Procedure, shortened: (§3)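 Emulsion formulation, diluted with water to the intended rate, was applied uniformly to leaves by small sprayer. Recipients were 14-day greenhouse-grown seedlings (25° C. to 30° C.). Assessment followed at 3 weeks.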

[7] = test system: Chenopodium album; assay: Test Example 5: herbicidal effect by foliage application, plastic box (symbol O); conditions: 320 g/ha, 3 weeks after application
Procedure, shortened: as §3

[8] = test system: transplanted rice plant; assay: Test Example 1: effect on crop, application before weed generation in submerged conditions (symbol a); conditions: application herbicide amount 320 g/ha
Procedure, shortened: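 Rice at 2.5 leaf stage transplanted into submerged soil (4 cm depth) sown with three weed species; herbicide applied before weed emergence.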

[9] = test system: soybean; assay: Test Example 4: effect on crop by soil treatment (symbol d)
Procedure, shortened: as §1

[10] = test system: Monochoria vaginalis; assay: Test Example 1: herbicidal activity, application before weed generation in submerged conditions (symbol C); conditions: application herbicide amount 320 g/ha
Procedure, shortened: as §2

[11] = application herbicide amount 320 g/ha

Compound | g: rapeseed, effect on crop grade [1] | Herbicidal effect grade, B: Scirpus juncoides [2] | f (beet) effect on crop grade [3, 11] | herbicidal effect on D (Leptochloa chinensis), grade 0-5 [4] | Herbicidal effect grade, B: Scirpus juncoides [5] | H: Echinochloa crus-galli var. crus-galli, herbicidal effect grade [6] | O: Chenopodium album, herbicidal effect grade [7] | Effect grade on crop, a: transplanted rice plant [8] | d (soybean) effect on crop grade [9, 11] | Herbicidal effect grade, C: Monochoria vaginalis [10] | g: rapeseed, effect on crop (criteria 0-5) [1] | f: beet, effect grade on crop ([3]; 320 g/ha) | H: Echinochloa crus-galli var. crus-galli, herbicidal effect (criteria 0-5) [6] | O: Chenopodium album, herbicidal effect (criteria 0-5) [7] | d: soybean, effect grade on crop ([9]; 320 g/ha) | Effect on crop grade, f: beet [3, 11] | D (Leptochloa chinensis) herbicidal effect grade ([4]; Table 24) | Effect on crop grade, d: soybean [9, 11]
CON=C(CC1CC(O)=C(c2c(C)cc(C)cc2C)C1=O)c1ccccc1 (stereo not shown) [1-047] | 3 (Herbicidal ratio of 40% or higher and lower than 70%) | 0 (Herbicidal ratio of 5% or lower (almost no effect)) | 0 (Herbicidal ratio of 5% or lower (almost no effect)) | 3 (Herbicidal ratio of 40% or higher and lower than 70%) | 0 (Herbicidal ratio of 5% or lower (almost no effect)) | 3 (Herbicidal ratio of 40% or higher and lower than 70%) | 0 (Herbicidal ratio of 5% or lower (almost no effect)) | 1 (Herbicidal ratio of 5% or higher and lower than 20%) | 0 (Herbicidal ratio of 5% or lower (almost no effect)) | 0 (Herbicidal ratio of 5% or lower (almost no effect)) |  |  |  |  |  |  |  | 
CON=C(C)CC1CC(OC(=O)C=Cc2ccco2)=C(c2c(C)cc(C)cc2C)C1=O (stereo not shown) [1-091] |  | 3 (Herbicidal ratio of 40% or higher and lower than 70%) |  | 5 (Herbicidal ratio of 90% or more (almost completely withered)) | 5 (Herbicidal ratio of 90% or more (almost completely withered)) |  |  | 4 (Herbicidal ratio of 70% or higher and lower than 90%) |  | 0 (Herbicidal ratio of 5% or lower (almost no effect)) | 4 (Herbicidal ratio of 70% or higher and lower than 90%) | 0 (Herbicidal ratio of 5% or lower (almost no effect)) | 5 (Herbicidal ratio of 90% or more (almost completely withered)) | 0 (Herbicidal ratio of 5% or lower (almost no effect)) | 0 (Herbicidal ratio of 5% or lower (almost no effect)) |  |  | 
CC(CC1CC(O)=C(c2c(C)cc(C)cc2C)C1=O)=NOCC1CC1 (stereo not shown) [1-024] | 4 (Herbicidal ratio of 70% or higher and lower than 90%) | 5 (Herbicidal ratio of 90% or more (almost completely withered)) | 0 (Herbicidal ratio of 5% or lower (almost no effect)) | 5 (Herbicidal ratio of 90% or more (almost completely withered)) | 5 (Herbicidal ratio of 90% or more (almost completely withered)) | 5 (Herbicidal ratio of 90% or more (almost completely withered)) | 1 (Herbicidal ratio of 5% or higher and lower than 20%) | 5 (Herbicidal ratio of 90% or more (almost completely withered)) | 1 (Herbicidal ratio of 5% or higher and lower than 20%) | 2 (Herbicidal ratio of 20% or higher and lower than 40%) |  |  |  |  |  |  |  | 
CON=C(CC1CC1)CC1CC(O)=C(c2c(C)cc(C)cc2C)C1=O (stereo not shown) [1-070] | 3 (Herbicidal ratio of 40% or higher and lower than 70%) | 0 (Herbicidal ratio of 5% or lower (almost no effect)) | 0 (Herbicidal ratio of 5% or lower (almost no effect)) | 4 (Herbicidal ratio of 70% or higher and lower than 90%) | 0 (Herbicidal ratio of 5% or lower (almost no effect)) | 3 (Herbicidal ratio of 40% or higher and lower than 70%) | 1 (Herbicidal ratio of 5% or higher and lower than 20%) | 4 (Herbicidal ratio of 70% or higher and lower than 90%) | 0 (Herbicidal ratio of 5% or lower (almost no effect)) | 0 (Herbicidal ratio of 5% or lower (almost no effect)) |  |  |  |  |  |  |  | 
CCC(C)C(CC1CC(O)=C(c2c(C)cc(C)cc2C)C1=O)=NOC (stereo not shown) [1-066] | 3 (Herbicidal ratio of 40% or higher and lower than 70%) | 0 (Herbicidal ratio of 5% or lower (almost no effect)) | 0 (Herbicidal ratio of 5% or lower (almost no effect)) | 2 (Herbicidal ratio of 20% or higher and lower than 40%) | 0 (Herbicidal ratio of 5% or lower (almost no effect)) | 5 (Herbicidal ratio of 90% or more (almost completely withered)) | 1 (Herbicidal ratio of 5% or higher and lower than 20%) | 5 (Herbicidal ratio of 90% or more (almost completely withered)) | 0 (Herbicidal ratio of 5% or lower (almost no effect)) | 0 (Herbicidal ratio of 5% or lower (almost no effect)) |  |  |  |  |  |  |  | 
CC#Cc1cc(C)c(C2=C(OC(=O)COc3ccccc3)CC(CC(=NOC)C(C)C)C2=O)c(C)c1 (stereo not shown) [9-003] | 4 (Herbicidal ratio of 70% or higher and lower than 90%) | 4 (Herbicidal ratio of 70% or higher and lower than 90%) |  |  | 4 (Herbicidal ratio of 70% or higher and lower than 90%) | 5 (Herbicidal ratio of 90% or more (almost completely withered)) | 3 (Herbicidal ratio of 40% or higher and lower than 70%) | 5 (Herbicidal ratio of 90% or more (almost completely withered)) |  | 1 (Herbicidal ratio of 5% or higher and lower than 20%) |  |  |  |  |  | 0 (Herbicidal ratio of 5% or lower (almost no effect)) | 5 (Herbicidal ratio of 90% or more (almost completely withered)) | 0 (Herbicidal ratio of 5% or lower (almost no effect))
CCON=C(C)CC1CC(O)=C(c2c(C)cc(C)cc2C)C1=O (stereo not shown) [1-003] | 4 (Herbicidal ratio of 70% or higher and lower than 90%) | 3 (Herbicidal ratio of 40% or higher and lower than 70%) | 2 (Herbicidal ratio of 20% or higher and lower than 40%) | 5 (Herbicidal ratio of 90% or more (almost completely withered)) | 4 (Herbicidal ratio of 70% or higher and lower than 90%) | 5 (Herbicidal ratio of 90% or more (almost completely withered)) | 3 (Herbicidal ratio of 40% or higher and lower than 70%) | 5 (Herbicidal ratio of 90% or more (almost completely withered)) | 3 (Herbicidal ratio of 40% or higher and lower than 70%) | 5 (Herbicidal ratio of 90% or more (almost completely withered)) |  |  |  |  |  |  |  | 
